Test results: the supplement of paper PMC10307832

How the values were obtained:
Experiment in all cases: relative viability (nuclei count vs DMSO), 5 days (fraction); higher = more cells survive
[1] = compound: C1=CC=C2C(=C1)N=C(S2)C(C#N)C3=NC(=NC=C3)NCCC4=CN=CC=C4 + N=C(N)NC(=N)NCCc1ccccc1 [Phenformin] (partner 250 µM)
Summary of the method: (§1)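 Nuclei were stained with Hoechst during a one-step fixation (final 0.05% Triton X-100, 1% formaldehyde, 1 ug/ml Hoechst) carried out 5 days after dosing, then counted on 4× images. The cells, lung cancer lines in 1536-well plates, had been dosed by pin tool the day after seeding with one drug alone or a fixed anchor-drug dose plus five library-drug doses (not always all listed) in √10 steps. Relative viability is the nuclei count in treated wells divided by that in vehicle wells, and each value is the median of duplicate plates.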

NVP-TAE684 + Tozasertib = compound: COc1cc(N2CCC(N3CCN(C)CC3)CC2)ccc1Nc1ncc(Cl)c(Nc2ccccc2S(=O)(=O)C(C)C)n1 [NVP-TAE684] + Cc1cc(Nc2cc(N3CCN(C)CC3)nc(Sc3ccc(NC(=O)C4CC4)cc3)n2)n[nH]1 [Tozasertib] (partner 0.1 µM)
Summary of the method: as §1

NVP-TAE684 + Crizotinib = compound: COc1cc(N2CCC(N3CCN(C)CC3)CC2)ccc1Nc1ncc(Cl)c(Nc2ccccc2S(=O)(=O)C(C)C)n1 [NVP-TAE684] + C[C@@H](Oc1cc(-c2cnn(C3CCNCC3)c2)cnc1N)c1c(Cl)ccc(F)c1Cl [Crizotinib] (partner 1 µM)
Summary of the method: as §1

CUDC-101 + Luminespib = compound: C#Cc1cccc(Nc2ncnc3cc(OC)c(OCCCCCCC(=O)NO)cc23)c1 [CUDC-101] + CCNC(=O)c1noc(-c2cc(C(C)C)c(O)cc2O)c1-c1ccc(CN2CCOCC2)cc1 [Luminespib] (partner 0.01 µM)
Summary of the method: as §1

Cell Line | relative viability ([1]; first compound 0.005 µM) | relative viability ([1]; first compound 0.01581 µM) | relative viability ([1]; first compound 0.05 µM) | relative viability ([1]; first compound 0.1581 µM) | relative viability ([1]; first compound 0.5 µM) | relative viability (NVP-TAE684 + Tozasertib; first compound 0.2 µM) | relative viability (NVP-TAE684 + Tozasertib; first compound 0.6325 µM) | relative viability (NVP-TAE684 + Tozasertib; first compound 2 µM) | relative viability (NVP-TAE684 + Crizotinib; first compound 0.2 µM) | relative viability (NVP-TAE684 + Crizotinib; first compound 0.6325 µM) | relative viability (NVP-TAE684 + Crizotinib; first compound 2 µM) | relative viability (CUDC-101 + Luminespib; first compound 0.01 µM) | relative viability (CUDC-101 + Luminespib; first compound 0.03162 µM) | relative viability (CUDC-101 + Luminespib; first compound 0.1 µM) | relative viability (CUDC-101 + Luminespib; first compound 0.3162 µM) | relative viability (CUDC-101 + Luminespib; first compound 1 µM)
LU99A | 0.767 | 0.9 | 0.793 | 1.07 | 0.814 | 0.298 | 0.293 | 0.206 | 0.651 | 0.576 | 0.262 | 0.224 | 0.247 | 0.245 | 0.261 | 0.248
PC-3 [JPC-3] | 0.502 | 0.485 | 0.456 | 0.48 | 0.419 | 0.926 | 0.86 | 0.584 | 0.993 | 1 | 0.946 | 0.739 | 0.648 | 0.64 | 0.563 | 0.301
A549 | 0.254 |  | 0.146 | 0.246 | 0.212 |  |  |  | 0.709 | 0.458 | 0.0727 |  |  |  |  | 
HCC-44 | 0.271 | 0.183 | 0.211 | 0.296 | 0.162 | 1 | 0.848 | 0.338 | 0.782 | 0.868 | 0.489 | 0.947 | 0.909 | 1.03 | 1.03 | 1.06
H3255 | 0.385 | 0.354 | 0.402 | 0.62 | 0.366 | 0.639 | 0.717 | 0.409 | 0.988 | 0.646 | 0.7 | 0.845 | 0.648 |  | 0.541 | 0.439
LXF-289 | 0.447 | 0.563 | 0.458 | 0.592 | 0.496 | 0.263 | 0.168 | 0.0842 | 0.852 | 0.791 | 0.706 | 0.651 | 0.632 | 0.741 | 0.752 | 0.449
PC-14 | 0.381 | 0.401 | 0.542 | 0.75 | 0.45 | 0.627 | 0.531 | 0.461 | 0.994 | 1.02 | 0.75 | 0.133 | 0.208 | 0.16 | 0.115 | 0.114
NCI-H661 | 0.231 | 0.255 | 0.291 | 0.291 | 0.277 | 0.373 | 0.341 | 0.352 | 1.03 | 1.02 | 1.05 | 0.985 | 0.975 | 0.876 | 0.835 | 0.674
EKVX | 0.245 | 0.239 | 0.243 | 0.273 | 0.23 | 0.391 | 0.36 | 0.274 | 0.775 | 0.859 | 0.582 | 0.916 | 0.677 | 0.749 | 0.982 | 0.81
Calu-6 |  |  |  |  |  |  |  |  | 0.73 | 0.687 | 0.285 |  |  |  |  | 
NCI-H1703 |  |  |  |  |  |  |  |  | 0.743 | 0.516 | 0.144 |  |  |  |  | 
NCI-H322M | 0.63 | 0.688 | 0.708 | 0.81 | 0.694 | 0.42 | 0.414 | 0.294 | 0.973 | 0.758 | 0.845 | 0.84 | 0.697 | 0.899 | 1.01 | 0.697
SK-MES-1 | 0.677 | 0.776 | 0.648 | 0.767 | 0.62 | 0.958 | 0.892 | 0.48 |  | 0.983 | 0.804 | 0.854 | 0.72 | 0.755 | 0.567 | 0.52
NCI-H1299 |  |  |  |  |  |  |  |  | 1.01 | 0.959 | 0.623 |  |  |  |  | 
NCI-H1355 | 0.41 | 0.437 | 0.412 | 0.436 | 0.412 | 0.521 | 0.471 | 0.301 | 1.09 | 0.978 | 0.568 | 0.729 | 0.741 | 0.694 | 0.676 | 0.586
ChaGo-K-1 |  | 0.373 | 0.48 | 0.54 | 0.536 | 0.214 | 0.206 | 0.16 | 1.09 | 1.11 | 0.713 | 0.74 | 0.522 | 0.625 | 0.709 | 0.609
NCI-H2126 | 0.536 | 0.529 | 0.505 | 0.543 | 0.529 | 0.96 | 0.764 | 0.407 | 1.08 | 1.07 | 0.726 | 1.03 | 0.871 | 0.938 | 0.891 | 0.793
NCI-H1395 | 0.422 | 0.378 | 0.415 | 0.449 | 0.418 | 0.819 | 0.699 | 0.626 |  |  |  | 0.623 | 0.733 | 0.906 | 0.802 | 0.663
HCC-78 | 0.677 | 0.635 | 0.656 | 0.814 | 0.741 | 0.361 | 0.429 | 0.217 | 0.287 | 0.296 | 0.286 |  |  |  |  | 
SW 900 | 0.418 | 0.704 | 0.627 | 1.02 | 0.338 | 0.576 | 0.531 | 0.322 |  |  |  | 0.168 | 0.181 | 0.185 | 0.157 | 0.174
NCI-H522 | 0.649 | 0.642 | 0.61 | 0.691 | 0.588 | 0.53 | 0.692 | 0.509 |  |  |  | 1.18 | 1.19 | 1.03 | 1.66 | 0.686
NCI-H1793 | 0.382 | 0.369 | 0.328 | 0.454 | 0.355 | 0.346 | 0.323 | 0.25 |  |  |  | 0.17 | 0.174 | 0.174 | 0.201 | 0.143
IA-LM |  |  |  |  |  |  |  |  | 0.626 | 0.692 | 0.62 |  |  |  |  | 
HCC-366 | 0.551 | 0.615 | 0.547 | 0.722 | 0.601 | 0.108 | 0.124 | 0.0322 | 0.923 | 0.648 | 0.226 |  |  |  |  | 
NCI-H1792 |  |  | 0.286 | 0.697 | 0.388 |  |  |  | 1.06 | 0.966 | 0.954 | 0.459 | 0.381 | 0.578 | 0.504 | 0.25
